From PubChem BioAssay AID2060897 (Molecular Pharmacology Branch, DTP, NCI, 2025)

Test system: 966289-007-R4-J1-PDC complex spheroid viability
Assay: Anticancer human tumor 966289-007-R4-J1-PDC patient-derived pancreatic adenocarcinoma cell line growth inhibition [RAS]
Conditions: for IC50: curve of first compound; for viability, T/C: stronger effect = lower value
In short: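 Agents were tested in combination matrices in half-log decrements from a top concentration at or near clinical Cmax (10 microM if undetermined). Targets were multi-cell spheroids of tumour lines plus HUVEC and MSC stromal cells.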

[1] = second compound 0.000949 µM, first compound 0.0316 µM
[2] = second compound 0.000949 µM, first compound 0.1 µM
[3] = second compound 0.000949 µM, first compound 0.316 µM
[4] = second compound 0.000949 µM, first compound 1 µM
[5] = second compound 0.003 µM, first compound 0.0316 µM
[6] = second compound 0.003 µM, first compound 0.1 µM
[7] = second compound 0.003 µM, first compound 0.316 µM
[8] = second compound 0.003 µM, first compound 1 µM
[9] = second compound 0.00949 µM, first compound 0.0316 µM
[10] = second compound 0.00949 µM, first compound 0.1 µM
[11] = second compound 0.00949 µM, first compound 0.316 µM
[12] = second compound 0.00949 µM, first compound 1 µM
[13] = second compound 0.03 µM, first compound 0.0316 µM
[14] = second compound 0.03 µM, first compound 0.1 µM
[15] = second compound 0.03 µM, first compound 0.316 µM
[16] = second compound 0.03 µM, first compound 1 µM
[17] = second compound 0.0949 µM, first compound 0.0316 µM
[18] = second compound 0.0949 µM, first compound 0.1 µM
[19] = second compound 0.0949 µM, first compound 0.316 µM
[20] = second compound 0.0949 µM, first compound 1 µM
[21] = second compound 0.3 µM, first compound 0.0316 µM
[22] = second compound 0.3 µM, first compound 0.1 µM
[23] = second compound 0.3 µM, first compound 0.316 µM
[24] = second compound 0.3 µM, first compound 1 µM
[25] = second compound 0.000949 µM, first compound 3.16 µM
[26] = second compound 0.000949 µM, first compound 10 µM
[27] = second compound 0.003 µM, first compound 3.16 µM
[28] = second compound 0.003 µM, first compound 10 µM
[29] = second compound 0.00949 µM, first compound 3.16 µM
[30] = second compound 0.00949 µM, first compound 10 µM
[31] = second compound 0.03 µM, first compound 3.16 µM
[32] = second compound 0.03 µM, first compound 10 µM
[33] = second compound 0.0949 µM, first compound 3.16 µM
[34] = second compound 0.0949 µM, first compound 10 µM
[35] = second compound 0.3 µM, first compound 3.16 µM
[36] = second compound 0.3 µM, first compound 10 µM
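Also: spheroids exposed to agents for one week before readout.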
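For viability, T/C in this document: percent viability relative to DMSO vehicle control wells as 100%.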

Q: What does the source list for `CCN1CCN(Cc2ccc(Nc3ncc(F)c(-c4cc(F)c5nc(C)n(C(C)C)c5c4)n3)nc2)CC1` + CCn1c(-c2cc(N3CCN(C)CC3)cnc2C(C)OC)c2c3cc(ccc31)-c1csc(n1)CC(NC(=O)C1CC1C)C(=O)N1CCCC(N1)C(=O)OCC(C)(C)C2?
A: IC50 (second compound 0.000949 µM): > 1 µM; IC50 (second compound 0.003 µM): > 1 µM; IC50 (second compound 0.00949 µM): > 1 µM; IC50 (second compound 0.03 µM): > 1 µM; IC50 (second compound 0.0949 µM): > 1 µM; IC50 (second compound 0.3 µM): > 1 µM; viability, T/C (second compound 0.000949 µM, first compound 0.00316 µM): 122%; viability, T/C (second compound 0.000949 µM, first compound 0.01 µM): 116%; viability, T/C [1]: 130%; viability, T/C [2]: 86.2%; viability, T/C [3]: 92.2%; viability, T/C [4]: 89.8%; viability, T/C (second compound 0.003 µM, first compound 0.00316 µM): 109%; viability, T/C (second compound 0.003 µM, first compound 0.01 µM): 121%; viability, T/C [5]: 112%; viability, T/C [6]: 95.7%; viability, T/C [7]: 114%; viability, T/C [8]: 85%; viability, T/C (second compound 0.00949 µM, first compound 0.00316 µM): 93.9%; viability, T/C (second compound 0.00949 µM, first compound 0.01 µM): 116%; viability, T/C [9]: 120%; viability, T/C [10]: 97.7%; viability, T/C [11]: 98.7%; viability, T/C [12]: 96.7%; viability, T/C (second compound 0.03 µM, first compound 0.00316 µM): 85.3%; viability, T/C (second compound 0.03 µM, first compound 0.01 µM): 105%; viability, T/C [13]: 129%; viability, T/C [14]: 95%; viability, T/C [15]: 97.8%; viability, T/C [16]: 85.1%; viability, T/C (second compound 0.0949 µM, first compound 0.00316 µM): 129%; viability, T/C (second compound 0.0949 µM, first compound 0.01 µM): 100%; viability, T/C [17]: 115%; viability, T/C [18]: 95.9%; viability, T/C [19]: 86.9%; viability, T/C [20]: 88.6%; viability, T/C (second compound 0.3 µM, first compound 0.00316 µM): 101%; viability, T/C (second compound 0.3 µM, first compound 0.01 µM): 89.8%; viability, T/C [21]: 114%; viability, T/C [22]: 111%; viability, T/C [23]: 97.9%; viability, T/C [24]: 79%

Q: `Cc1nc(N2CCC3(CC2)COC(C)C3N)c(CO)nc1Sc1ccnc(N)c1Cl` (stereo unspecified) + CCn1c(-c2cc(N3CCN(C)CC3)cnc2C(C)OC)c2c3cc(ccc31)-c1csc(n1)CC(NC(=O)C1CC1C)C(=O)N1CCCC(N1)C(=O)OCC(C)(C)C2 was tested. Which IC50 (second compound 0.000949 µM) did it give?
A: > 10 µM

Q: What about the IC50 (second compound 0.003 µM) of the same compound?
A: > 10 µM

Q: And the IC50 (second compound 0.00949 µM)?
A: > 10 µM

Q: And the IC50 (second compound 0.03 µM)?
A: > 10 µM

Q: What about the IC50 (second compound 0.0949 µM) of the same compound?
A: > 10 µM

Q: What about the IC50 (second compound 0.3 µM) of the same compound?
A: > 10 µM

Q: And the viability, T/C [1]?
A: 130%

Q: What about the viability, T/C [2] of the same compound?
A: 121%

Q: And the viability, T/C [3]?
A: 107%

Q: And the viability, T/C [4]?
A: 85.4%

Q: What about the viability, T/C [25] of the same compound?
A: 93.8%

Q: And the viability, T/C [26]?
A: 115%

Q: What about the viability, T/C [5] of the same compound?
A: 114%

Q: And the viability, T/C [6]?
A: 92.9%

Q: What about the viability, T/C [7] of the same compound?
A: 94.1%

Q: And the viability, T/C [8]?
A: 86.7%

Q: And the viability, T/C [27]?
A: 81.5%

Q: And the viability, T/C [28]?
A: 97.1%

Q: What about the viability, T/C [9] of the same compound?
A: 106%

Q: And the viability, T/C [10]?
A: 99.2%

Q: And the viability, T/C [11]?
A: 84.4%

Q: And the viability, T/C [12]?
A: 122%

Q: And the viability, T/C [29]?
A: 86.1%

Q: What about the viability, T/C [30] of the same compound?
A: 97.7%

Q: And the viability, T/C [13]?
A: 87.4%

Q: And the viability, T/C [14]?
A: 69.8%

Q: And the viability, T/C [15]?
A: 102%

Q: What about the viability, T/C [16] of the same compound?
A: 107%

Q: And the viability, T/C [31]?
A: 79.9%

Q: And the viability, T/C [32]?
A: 102%

Q: What about the viability, T/C [17] of the same compound?
A: 75.6%

Q: And the viability, T/C [18]?
A: 131%

Q: What about the viability, T/C [19] of the same compound?
A: 86.9%

Q: What about the viability, T/C [20] of the same compound?
A: 119%

Q: And the viability, T/C [33]?
A: 113%

Q: And the viability, T/C [34]?
A: 117%

Q: And the viability, T/C [21]?
A: 92.3%

Q: And the viability, T/C [22]?
A: 88.6%

Q: And the viability, T/C [23]?
A: 110%

Q: And the viability, T/C [24]?
A: 108%

Q: And the viability, T/C [35]?
A: 111%

Q: What about the viability, T/C [36] of the same compound?
A: 103%

Q: With `NC1c2ccccc2OC12CCN(c1cnc3c(N4CCCc5ncccc54)n[nH]c3n1)CC2` (stereo unspecified) + CCn1c(-c2cc(N3CCN(C)CC3)cnc2C(C)OC)c2c3cc(ccc31)-c1csc(n1)CC(NC(=O)C1CC1C)C(=O)N1CCCC(N1)C(=O)OCC(C)(C)C2 as the compound, how does the IC50 (second compound 0.000949 µM) read?
A: > 10 µM

Q: What about the IC50 (second compound 0.003 µM) of the same compound?
A: > 10 µM

Q: And the IC50 (second compound 0.00949 µM)?
A: > 10 µM

Q: And the IC50 (second compound 0.03 µM)?
A: > 10 µM

Q: What about the IC50 (second compound 0.0949 µM) of the same compound?
A: > 10 µM

Q: What about the IC50 (second compound 0.3 µM) of the same compound?
A: > 10 µM

Q: And the viability, T/C [1]?
A: 88.7%

Q: And the viability, T/C [2]?
A: 84%

Q: And the viability, T/C [3]?
A: 117%

Q: And the viability, T/C [4]?
A: 104%

Q: And the viability, T/C [25]?
A: 123%

Q: What about the viability, T/C [26] of the same compound?
A: 85%

Q: And the viability, T/C [5]?
A: 121%

Q: And the viability, T/C [6]?
A: 93%

Q: What about the viability, T/C [7] of the same compound?
A: 88.9%

Q: And the viability, T/C [8]?
A: 95.2%

Q: And the viability, T/C [27]?
A: 105%

Q: And the viability, T/C [28]?
A: 109%

Q: And the viability, T/C [9]?
A: 106%

Q: What about the viability, T/C [10] of the same compound?
A: 103%

Q: What about the viability, T/C [11] of the same compound?
A: 88.5%

Q: What about the viability, T/C [12] of the same compound?
A: 111%

Q: And the viability, T/C [29]?
A: 97.1%

Q: What about the viability, T/C [30] of the same compound?
A: 89.9%

Q: And the viability, T/C [13]?
A: 78.9%

Q: What about the viability, T/C [14] of the same compound?
A: 88.8%

Q: What about the viability, T/C [15] of the same compound?
A: 103%

Q: What about the viability, T/C [16] of the same compound?
A: 105%

Q: And the viability, T/C [31]?
A: 119%

Q: And the viability, T/C [32]?
A: 69.7%

Q: What about the viability, T/C [17] of the same compound?
A: 103%

Q: What about the viability, T/C [18] of the same compound?
A: 122%

Q: And the viability, T/C [19]?
A: 105%

Q: And the viability, T/C [20]?
A: 117%

Q: What about the viability, T/C [33] of the same compound?
A: 92.8%

Q: And the viability, T/C [34]?
A: 88.4%

Q: What about the viability, T/C [21] of the same compound?
A: 103%

Q: What about the viability, T/C [22] of the same compound?
A: 88.1%

Q: What about the viability, T/C [23] of the same compound?
A: 96.8%

Q: And the viability, T/C [24]?
A: 97.3%

Q: And the viability, T/C [35]?
A: 91.2%

Q: And the viability, T/C [36]?
A: 137%
